Measured values reported in patent US10604514B2, “6-(5-membered heteroaryl)isoquinolin-3-yl carboxamides and preparation and use thereof” (Samumed, LLC, priority 2017, dated 2020).
Read-outs that look alike come from different tables or passages of the source.

Tests used:
[1] = test system: Tau phosphorylation at Ser396 (pSer396), SH-SY5Y cells; experiment: Tau phosphorylation at Ser396 (pSer396) in SH-SY5Y cells, ELISA/western blot; assay type: cell-based, human; details: Homo sapiens; SH-SY5Y cells, overnight (16-18 h); read-out: pSer396 Tau EC50;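 note: cell lysates probed for reduced Tau pSer396 via ELISA (colorimetric) or western blot (chemiluminescence), both with one shared pSer396 antibody, EC50 for lowering phosphorylation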
[2] = test system: LL29 cells (primary human fibroblasts derived from IPF patients), α-smooth muscle actin; experiment: Inhibition of fibrotic process: αSMA in TGF-β1-treated primary human fibroblasts from IPF patients (LL29 cells); assay type: cell-based; details: Homo sapiens, Fibroblast; for EC50: 96 h, % αSMA-positive LL29 cells, TGF-β1 20 ng/mL, 4 days
Summary of the method: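 IPF-patient lung fibroblasts (LL29) were stimulated with TGF-β1 (20 ng/mL) in 1% FBS medium with compound (11-point 1:2 series, 0.1% DMSO) for 4 days at 37 °C. Fixed cells were immunostained for αSMA and imaged, excluding SYTOX-positive dead cells. The % αSMA-positive cells was normalized to TGF-β1/DMSO control wells.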

[3] = test system: SW480 colon carcinoma cells; experiment: Cell viability assay (CellTiter-Glo) in SW480 cells; assay type: cell-based, human; details: Homo sapiens; for EC50: 96 h, cell viability, SW480 cells, four days, CellTiter-Glo; for inhibition at 10 µM: SW480, read-out: percent inhibition at 10 μM;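 for all read-outs here: SW480 cells stably carrying an Sp5-luciferase TCF/LEF reporter, luminescent ATP signal as viability measure, DMSO-treated cells as control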
Procedure: Representative compounds were screened using the assay procedure to assess the effect on cell viability as described below.
SW480 colon carcinoma cells were transduced with a lentiviral vector expressing luciferase with a human Sp5 promoter consisting of a sequence of eight TCF/LEF binding sites. SW480 cells stably expressing the Sp5-Luc reporter gene and a hygromycin resistance gene were selected by treatment with 150 μg/mL of hygromycin for 7 days. These stably transduced SW480 cells were expanded in cell culture and used for all further screening activities. Each compound was dissolved in DMSO as a 10 mM stock and used to prepare compound source plates.
For the Cell Viability Assays, the cells were plated at 2,000 cells/well in 384-well plates with a DMEM medium containing 1% fetal bovine serum, and 1% Penicillin-Streptomycin and incubated for four days hours at 37° C. and 5% CO2. Eight replicates of DMSO-treated cells served as controls and cells treated with compound were performed in duplicate.
After incubation, 10 μL of CellTiter-Glo (Promega) was added to each well allowed to incubate for approximately 12 minutes.
Dose-response curves were generated and EC50 concentration values were calculated using non-linear regression curve fit in the GraphPad Prism (San Diego, Calif.) or Dotmatics' Studies Software (Bishops Stortford, UK).

DYRK1A kinase = DYRK1A kinase (Homo sapiens (Human), UniProt Q13627); experiment: DYRK1A kinase assay (Ser/Thr 18 peptide Z-lyte, FRET)
Procedure: Each compound was dissolved in DMSO as a 10 mM stock and used to prepare compound source plates.
This is a non-radioactive assay using fluorescence resonance energy transfer (FRET) between coumarin and fluorescein to detect kinase activity which is represented as a ratio of coumarin emission/fluorescein emission.
The mixture was allowed to incubate with the representative compounds for one hour at room temperature. All reactions were performed in duplicate. Unphosphorylated (“0% Control”) and phosphorylated (“100% control”) forms of Ser/Thr 18 served as control reactions. Additionally, an 11-point dose-response curve of Staurosporine (1 uM top) was run to serve as a positive compound control.
After incubation, Development Reagent A was diluted in Development Buffer then added to the reaction and allowed to further incubate for one hour at room temperature.
The percent phosphorylation was then calculated using the following formula: [1−((Em ratio×F100%)−C100%)/((C0%−C100%)+(Em ratio×(F100%−F0%)))]. Dose-response curves were generated and inhibitory concentration (IC50) values were calculated using non-linear regression curve fit in the Dotmatics' Studies Software (Bishops Stortford, UK).

[4] = test system: Wnt activity (Sp5-Luc reporter in SW480 colon carcinoma cells); experiment: Wnt activity screening assay (Sp5-Luc reporter gene assay); assay type: cell-based, human; details: Homo sapiens; for EC50: Sp5-Luc reporter, SW480 cells, 36 to 48 hours; for inhibition at 10 µM: SW480, read-out: percent inhibition at 10 μM
Summary of the method: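 SW480 cells stably carrying an Sp5 promoter (eight TCF/LEF sites)-firefly luciferase reporter were plated in DMEM with 1% FBS and treated with a 10-point, 1:3 dilution series from 10 μM (0.1% DMSO) for 36 to 48 h at 37° C. Luminescence was normalized to DMSO controls, and EC50 came from four-parameter nonlinear regression.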

GSK3β kinase = GSK3β kinase (Homo sapiens (Human), UniProt P49841); experiment: GSK3β kinase assay (Ser/Thr 09 peptide Z-lyte, FRET); assay type: biochemical; details: method text calls the value IC50;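 note: Coumarin/fluorescein emission ratio converted to percent phosphorylation against unphosphorylated (0%) and phosphorylated (100%) controls, 1 h compound incubation at room temperature, 11-point threefold dilutions from 10 µM, run in duplicate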
Procedure: Representative compounds were screened using the assay procedure for GSK30 kinase activity as described below.
Each compound is dissolved in DMSO as a 10 mM stock and used to prepare compound source plates. Serial dilution (1:3, 11-point dose-response curves from 10 M to 0.0003 μM) and compound transfer was performed using the ECHO 550 (Labcyte, Sunnyvale, Calif.) into 1536-well black-walled round bottom plates (Corning).
This is a non-radioactive assay using fluorescence resonance energy transfer (FRET) between coumarin and fluorescein to detect kinase activity which is represented as ratio of coumarin emission/fluorescein emission.
The mixture is allowed to incubate with the representative compounds for one hour at room temperature. All reactions were performed in duplicate. Unphosphorylated (“0% Control”) and phosphorylated (“100% control”) forms of Ser/Thr 18 serve as control reactions.
After incubation, diluted Development Buffer is added to the reaction and allowed to further incubate for one hour at room temperature.
The percent phosphorylation is then calculated using the following formula: [1−((Em ratio×F100%)−C100%)/((C0%−C100%)+(Em ratio×(F100%−F0%)))].
Dose-response curves are generated and inhibitory concentration (IC50) values are calculated using non-linear regression curve fit in the Dotmatics' Studies Software (Bishops Stortford, UK).

IL-6 = IL-6 inhibition in LPS-stimulated human peripheral blood mononuclear cells (HTRF); assay type: cell-based; details: Homo sapiens, PBMC; for inhibition at 10 µM: read-out: percent value in parentheses below EC50 >10; for EC50: IL-6, LPS-stimulated huPBMCs, HTRF
Summary of the method: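 Fresh human PBMCs (5000 cells/well, 1% FBS RPMI) preincubated with compound (10-point 1:3 series from 10 μM, 0.25% DMSO) 2 h at 37 °C, then stimulated with 50 ng/mL E. coli LPS for 22 h. IL-6 by HTRF 665/620 ratio; DMSO-normalized, EC50 from 4-parameter fit.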

[5] = DYRK1A kinase, method text calls the value IC50

GSK3β kinase, sequence (P49841 whole entry): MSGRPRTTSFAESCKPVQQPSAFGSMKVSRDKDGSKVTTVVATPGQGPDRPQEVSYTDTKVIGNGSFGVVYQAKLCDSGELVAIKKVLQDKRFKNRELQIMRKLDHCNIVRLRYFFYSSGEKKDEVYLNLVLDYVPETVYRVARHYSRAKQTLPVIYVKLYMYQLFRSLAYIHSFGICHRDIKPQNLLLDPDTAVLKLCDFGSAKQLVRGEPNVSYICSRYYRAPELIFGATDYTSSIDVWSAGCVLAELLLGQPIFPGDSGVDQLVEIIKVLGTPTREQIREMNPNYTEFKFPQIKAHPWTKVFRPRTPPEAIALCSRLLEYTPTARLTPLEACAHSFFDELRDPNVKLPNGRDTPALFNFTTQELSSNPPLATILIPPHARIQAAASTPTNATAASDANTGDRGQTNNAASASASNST

Structure (SMILES)	EC50 [1]	EC50 [2]	EC50 [3]	EC50 (DYRK1A kinase; [5])	EC50 [4]	EC50 (GSK3β kinase)	inhibition at 10 µM (IL-6)	EC50 (IL-6)	inhibition at 10 µM [3]	EC50 (DYRK1A kinase)	inhibition at 10 µM [4]	inhibition at 10 µM ([2]; read-out: percent inhibition at 10 μM)
Cc1nnc(-c2ccc3cnc(NC(=O)C4CCN(CCC(F)(F)F)CC4)cc3c2)s1 [Compound 38, N-(6-(5-Methyl-1,3,4-thiadiazol-2-yl)isoquinolin-3-yl)-1-(3,3,3-trifluoropropyl)piperidine-4-carboxamide]	67 nM	112 nM	1080 nM	6 nM	743 nM	9 nM	3.2%	> 10000 nM	–	–	–	–
[2H]C1([2H])OC([2H])([2H])C([2H])([2H])N(CC(=O)Nc2cc3cc(-c4cnn(C)c4)ccc3cn2)C1([2H])[2H] [Compound 39, N-(6-(1-Methyl-1H-pyrazol-4-yl)isoquinolin-3-yl)-2-(morpholino-d8) acetamide]	538 nM	2590 nM	> 10000 nM	–	> 10000 nM	96 nM	–	9400 nM	27.3%	15 nM	36.3%	–
[2H]C1([2H])OC([2H])([2H])C([2H])([2H])N(CC(=O)Nc2cc3cc(-c4cnc(C)o4)ccc3cn2)C1([2H])[2H] [Compound 40, N-(6-(2-Methyloxazol-5-yl)isoquinolin-3-yl)-2-(morpholino-d8)acetamide]	688 nM	3710 nM	> 10000 nM	–	> 10000 nM	120 nM	–	9700 nM	27%	29 nM	29.6%	–
[2H]C1([2H])OC([2H])([2H])C([2H])([2H])N(CC(=O)Nc2cc3cc(-c4cnc(C)s4)ccc3cn2)C1([2H])[2H] [Compound 41, N-(6-(2-Methylthiazol-5-yl)isoquinolin-3-yl)-2-(morpholino-d8)acetamide]	869 nM	1220 nM	> 10000 nM	–	> 10000 nM	203 nM	9.4%	> 10000 nM	10.7%	27 nM	29.7%	–
C[C@H]1CN(C)CCN1C(=O)Nc1cc2cc(-c3cnn(C)c3)ccc2cn1 [Compound 42, (S)-2,4-Dimethyl-N-(6-(1-methyl-1H-pyrazol-4-yl)isoquinolin-3-yl) piperazine-1-carboxamide]	> 10000 nM	> 10000 nM	> 10000 nM	12 nM	> 10000 nM	4670 nM	6.4%	> 10000 nM	26.5%	–	25.5%	6.4%
Cc1ncc(-c2ccc3cnc(NC(=O)[C@H]4CC[C@H](CO)CC4)cc3c2)o1 [Compound 43, trans-4-(hydroxymethyl)-N-(6-(2-methyloxazol-5-yl)isoquinolin-3-yl)cyclohexane-1-carboxamide]	362 nM	230 nM	4980 nM	2 nM	239 nM	66 nM	–	1070 nM	–	–	–	–
Cc1ncc(-c2ccc3cnc(NC(=O)[C@H]4CC[C@H](N(C)CC(F)F)CC4)cc3c2)o1 [Compound 44, trans-4-((2,2-Difluoroethyl)(methyl)amino)-N-(6-(2-methyloxazol-5-yl)isoquinolin-3-yl)cyclohexane-1-carboxamide]	445 nM	247 nM	2800 nM	5 nM	799 nM	65 nM	–	1130 nM	–	–	–	–
Cc1nnc(-c2ccc3cnc(NC(=O)C4CCN(C)CC4)cc3c2)s1 [Compound 46, 1-Methyl-N-(6-(5-methyl-1,3,4-thiadiazol-2-yl)isoquinolin-3-yl)piperidine-4-carboxamide]	91 nM	640 nM	1040 nM	–	730 nM	23 nM	–	3760 nM	–	6 nM	–	–
Cc1ncc(-c2ccc3cnc(NC(=O)C4CCN(C)CC4)cc3c2)o1 [Compound 47, 1-Methyl-N-(6-(2-methyloxazol-5-yl)isoquinolin-3-yl)piperidine-4-carboxamide]	174 nM	262 nM	751 nM	6 nM	917 nM	65 nM	–	945 nM	–	–	–	–
COC1CCN(CC(=O)Nc2cc3cc(-c4cnc(C)o4)ccc3cn2)CC1 [Compound 48, 2-(4-Methoxypiperidin-1-yl)-N-(6-(2-methyloxazol-5-yl)isoquinolin-3-yl) acetamide]	359 nM	718 nM	3890 nM	20 nM	820 nM	54 nM	–	9070 nM	–	–	–	–
COC1CCN(CC(=O)Nc2cc3cc(-c4nnc(C)s4)ccc3cn2)CC1 [Compound 49, 2-(4-Methoxypiperidin-1-yl)-N-(6-(5-methyl-1,3,4-thiadiazol-2-yl)isoquinolin-3-yl)acetamide]	135 nM	643 nM	2900 nM	21 nM	> 10000 nM	6 nM	9%	> 10000 nM	–	–	32.9%	–
Cc1ncc(-c2ccc3cnc(NC(=O)N4CCC(N5CCOCC5)CC4)cc3c2)o1 [Compound 50, N-(6-(2-Methyloxazol-5-yl)isoquinolin-3-yl)-4-morpholinopiperidine-1-carboxamide]	779 nM	1470 nM	> 10000 nM	20 nM	28 nM	218 nM	–	9200 nM	43%	–	–	–
Cc1ncc(-c2ccc3cnc(NC(=O)N4CC[C@H](N)[C@@H](F)C4)cc3c2)o1 [Compound 51, (3S,4S)-4-Amino-3-fluoro-N-(6-(2-methyloxazol-5-yl)isoquinolin-3-yl) piperidine-1-carboxamide]	656 nM	2490 nM	3940 nM	14 nM	36 nM	349 nM	–	3240 nM	–	–	–	–
Cc1ncc(-c2ccc3cnc(NC(=O)N4CCC(N(C)CC(F)F)CC4)cc3c2)o1 [Compound 52, 4-((2,2-Difluoroethyl)(methyl)amino)-N-(6-(2-methyloxazol-5-yl)isoquinolin-3-yl)piperidine-1-carboxamide]	1100 nM	1730 nM	3970 nM	9 nM	923 nM	156 nM	–	3700 nM	–	–	–	–
Cc1ncc(-c2ccc3cnc(NC(=O)N4CC[C@H](NC(C)C)[C@@H](F)C4)cc3c2)o1 [Compound 53, (3 S,4S)-3-Fluoro-4-(isopropylamino)-N-(6-(2-methyloxazol-5-yl)isoquinolin-3-yl)piperidine-1-carboxamide]	2300 nM	1580 nM	4510 nM	38 nM	2810 nM	366 nM	–	9360 nM	–	–	–	–
COC1CCN(CC(=O)Nc2cc3cc(-c4cn(C)nn4)ccc3cn2)CC1 [Compound 54, 2-(4-Methoxypiperidin-1-yl)-N-(6-(1-methyl-1H-1,2,3-triazol-4-yl)isoquinolin-3-yl)acetamide]	97 nM	412 nM	3210 nM	7 nM	943 nM	6 nM	–	9630 nM	–	–	–	–
Cc1ncc(-c2cc3cc(NC(=O)[C@H]4CC[C@H](N5CCOCC5)CC4)ncc3cc2F)o1 [Compound 55, trans-N-(7-Fluoro-6-(2-methyloxazol-5-yl)isoquinolin-3-yl)-4-morpholinocyclohexane-1-carboxamide]	178 nM	678 nM	1300 nM	6 nM	3700 nM	88 nM	18.3%	> 10000 nM	–	–	–	–
Cn1cc(-c2cc(F)c3cnc(NC(=O)[C@H]4CC[C@H](N5CCOCC5)CC4)cc3c2)nn1 [Compound 56, trans-N-(8-Fluoro-6-(1-methyl-1H-1,2,3-triazol-4-yl)isoquinolin-3-yl)-4-morpholinocyclohexane-1-carboxamide]	92 nM	285 nM	6500 nM	4 nM	5350 nM	9 nM	–	3370 nM	–	–	–	–
